From the supplement of paper PMC11061612

Tests used:
Experiment in all cases: combination Emax (second highest fraction inhibited in the dose matrix, 72 h); higher = more inhibition; extreme values may be limits of the assay
[1] = test system: ASH-3 (Thyroid Gland Carcinoma)
Procedure, shortened: (§1)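 Cell lines grown in DMEM/F12 or RPMI with 10% FBS were plated in 1536-well plates and held 24 hours at 37°C, 5% CO2 before 72 hours of exposure to two-drug dose matrices, with DMSO typically at 0.2%. CellTiter-Glo 2.0 luminescence gave viability, which was converted to inhibition. Vehicle wells were set to 0 and blank wells to 1. Combination Emax is the second-highest inhibition in the matrix, and Bliss excess is the observed combination effect minus the expected EA + EB − EA·EB, where EA and EB are the single-agent effects.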

BT-20 (Breast Carcinoma) = test system: BT-20 (Breast Carcinoma)
Procedure, shortened: as §1

[2] = test system: DG-75 (Burkitt's Lymphoma)
Procedure, shortened: as §1

EW-13 (Ewing's Sarcoma) = test system: EW-13 (Ewing's Sarcoma)
Procedure, shortened: as §1

EW-18 (Ewing's Sarcoma) = test system: EW-18 (Ewing's Sarcoma)
Procedure, shortened: as §1

GOTO (Neuroblastoma) = test system: GOTO (Neuroblastoma)
Procedure, shortened: as §1

[3] = test system: HC-1 (Other Blood Carcinomas)
Procedure, shortened: as §1

[4] = test system: KLE (Endometrial Carcinoma)
Procedure, shortened: as §1

NB7 (Neuroblastoma) = test system: NB7 (Neuroblastoma)
Procedure, shortened: as §1

[5] = test system: NCI-H2347 (Lung Adenocarcinoma)
Procedure, shortened: as §1

[6] = test system: NCI-H322M (Lung Adenocarcinoma)
Procedure, shortened: as §1

[7] = test system: NCI-H513 (Other Solid Carcinomas)
Procedure, shortened: as §1

NH-12 (Neuroblastoma) = test system: NH-12 (Neuroblastoma)
Procedure, shortened: as §1

[8] = test system: OCUB-M (Breast Carcinoma)
Procedure, shortened: as §1

[9] = test system: OCUM-1 (Gastric Carcinoma)
Procedure, shortened: as §1

[10] = test system: PF-382 (T-Lymphoblastic Leukemia)
Procedure, shortened: as §1

[11] = test system: PFSK-1 (Other Solid Carcinomas)
Procedure, shortened: as §1

[12] = test system: SCC-3 (B-Cell Non-Hodgkin's Lymphoma)
Procedure, shortened: as §1

[13] = test system: TGBC11TKB (Gastric Carcinoma)
Procedure, shortened: as §1

U-87-MG (Glioblastoma) = test system: U-87-MG (Glioblastoma)
Procedure, shortened: as §1

| SMILES | combination Emax [1] | combination Emax (BT-20 (Breast Carcinoma)) | combination Emax [2] | combination Emax (EW-13 (Ewing's Sarcoma)) | combination Emax (EW-18 (Ewing's Sarcoma)) | combination Emax (GOTO (Neuroblastoma)) | combination Emax [3] | combination Emax [4] | combination Emax (NB7 (Neuroblastoma)) | combination Emax [5] | combination Emax [6] | combination Emax [7] | combination Emax (NH-12 (Neuroblastoma)) | combination Emax [8] | combination Emax [9] | combination Emax [10] | combination Emax [11] | combination Emax [12] | combination Emax [13] | combination Emax (U-87-MG (Glioblastoma)) |
| --- | --- | --- | --- | --- | --- | --- | --- | --- | --- | --- | --- | --- | --- | --- | --- | --- | --- | --- | --- | --- |
| CC1(C)CCC(CN2CCN(c3ccc(C(=O)NS(=O)(=O)c4ccc(NCC5CCOCC5)c([N+](=O)[O-])c4)c(Oc4cnc5[nH]ccc5c4)c3)CC2)=C(c2ccc(Cl)cc2)C1 [Venetoclax] + CN(C)CCCOc1ccc(-c2ccc3ncc4c(c3c2)n(C2CCOCC2)c(=O)n4C)cn1 [AZD0156] (first compound max 1 µM, 7x7, partner max 1 µM) | 0.229 | 0.132 | 0.125 | 0.062 | 0.389 | 0.455 | 0.207 | 0.352 | 0.18 | 0.191 | 0.31 | 0.21 | 0.483 | 0.749 | 0.284 | 0.256 | 0.391 | 0.157 | 0.235 | 0.203 |
| CC1(C)CCC(CN2CCN(c3ccc(C(=O)NS(=O)(=O)c4ccc(NCC5CCOCC5)c([N+](=O)[O-])c4)c(Oc4cnc5[nH]ccc5c4)c3)CC2)=C(c2ccc(Cl)cc2)C1 [Venetoclax] + C[C@@H]1COCCN1C2=NC(=NC(=C2)C3(CC3)[S@](=N)(=O)C)C4=C5C=CNC5=NC=C4 [AZD6738] (first compound max 1 µM, 7x7, partner max 10 µM) | 0.57 | 0.491 | 0.781 | 0.671 | 0.67 | 0.966 | 0.864 | 0.515 | 0.5 | 0.402 | 0.894 | 0.356 | 0.968 | 0.652 | 0.672 | 0.927 | 0.685 | 0.938 | 0.901 | 0.596 |
| CN(CCO)CC[C@H](CSc1ccccc1)Nc1ccc(S(=O)(=O)NC(=O)c2ccc(N3CCC([C@@H](O)c4ccccc4-c4ccc(Cl)cc4)CC3)cc2)cc1S(=O)(=O)C(F)(F)F [AZD4320] + Cn1cnc2c(F)c(Nc3ccc(Br)cc3Cl)c(C(=O)NOCCO)cc21 [Selumetinib] (first compound max 1 µM, 7x7, partner max 3 µM) | 0.728 | 0.746 | 0.206 | 0.933 | 0.881 | 0.85 | 0.972 | 0.423 | 0.507 | 0.68 | 0.642 | 0.398 | 0.998 | 0.797 | 0.996 | 1 | 0.419 | 0.546 | 0.469 | 0.278 |
| CC(=O)c1c(C)c2cnc(Nc3ccc(N4CCNCC4)cn3)nc2n(C2CCCC2)c1=O [Palbociclib] + Cc1c2c(nn1C)CSCc1cc(n(C)n1)CSc1cc(c3ccccc3c1)OCCCc1c(C(=O)O)n(C)c3c-2c(Cl)ccc13 [AZD5991] (first compound max 10 µM, 7x7, partner max 1 µM) | 0.398 | 0.916 | 0.717 | 0.488 | 0.899 | 0.802 | 0.654 | 0.181 | 0.576 | 0.148 | 0.501 | 0.171 | 0.478 | 0.882 | 0.285 | 0.633 | 0.969 | 0.626 | 0.355 | 0.29 |
| Cc1c2c(nn1C)CSCc1cc(n(C)n1)CSc1cc(c3ccccc3c1)OCCCc1c(C(=O)O)n(C)c3c-2c(Cl)ccc13 [AZD5991] + C[C@@H](Nc1cc(F)cc(F)c1)c1cc(C(=O)N(C)C)cc2c(=O)cc(N3CCOCC3)oc12 [AZD8186] (first compound max 1 µM, 7x7, partner max 3 µM) | 0.46 | 0.614 | 0.219 | 0.454 | 0.94 | 0.654 | 0.534 | 0.493 | 0.686 | 0.279 | 0.414 | 0.339 | 0.313 | 0.986 | 0.137 | 0.27 | 0.998 | 0.409 | 0.548 | 0.45 |
| Cn1cnc2c(F)c(Nc3ccc(Br)cc3Cl)c(C(=O)NOCCO)cc21 [Selumetinib] + C[C@@H]1COCCN1C2=NC(=NC(=C2)C3(CC3)[S@](=N)(=O)C)C4=C5C=CNC5=NC=C4 [AZD6738] (first compound max 10 µM, 7x7, partner max 10 µM) | 0.607 | 0.576 | 0.807 | 0.623 | 0.696 | 0.946 | 0.793 | 0.442 | 0.597 | 0.382 | 0.88 | 0.416 | 0.91 | 0.249 | 0.951 | 0.912 | 0.595 | 0.933 | 0.854 | 0.457 |
